Measured values taken from paper PMC4468940, “Glucose-tolerant β-glucosidase retrieved from a Kusaya gravy metagenome” (Frontiers in Microbiology, 2015).

Each molecule was assayed on T1, Ks5A7 (assay: p-nitrophenol release, […] nm, initial rates). Conditions: McIlvaine buffer pH 5.5, 45°C, no glucose added.
T1 construct: full length, 452 aa, 52,509 Da (53,573 Da tagged), C-terminal 6xHis tag (pET29b, primer-encoded LE linker) kept; E. coli Rosetta (DE3); ~160 kDa by gel filtration; GH1; N-terminus from primer MMKFNENFVWG, C-terminus IEENGENL; silent NdeI site removal
Format: biochemical, metagenome (uncultured bacterium, Kusaya gravy)
In the case of `C[C@H]1O[C@@H](Oc2ccc([N+](=O)[O-])cc2)[C@H](O)[C@@H](O)[C@H]1O` [pNPFuc], the Km is reported as 152 ± 4 µM.
In the case of `O=[N+]([O-])c1ccc(O[C@@H]2O[C@H](CO)[C@@H](O)[C@H](O)[C@H]2O)cc1` [pNPGlc], the Km is reported as 78 ± 2 µM.

These molecules were tested on T1, Ks5A7 (assay: released glucose, Amplex Red glucose oxidase assay). Conditions: McIlvaine buffer pH 5.5, 45°C.
Format: biochemical, metagenome (uncultured bacterium, Kusaya gravy)
From the text: released glucose, Amplex Red glucose oxidase assay on Ks5A7
With `OC[C@H]1O[C@@H](O[C@H]2[C@H](O)[C@@H](O)C(O)O[C@@H]2CO)[C@H](O)[C@@H](O)[C@@H]1O` (stereo partly drawn) [Cellobiose] the Km was 358 ± 55 µM.
`OC[C@H]1O[C@@H](O[C@H]2[C@H](O)[C@@H](O)[C@H](O[C@H]3[C@H](O)[C@@H](O)[C@H](O[C@H]4[C@H](O)[C@@H](O)[C@H](O[C@H]5[C@H](O)[C@@H](O)C(O)O[C@@H]5CO)O[C@@H]4CO)O[C@@H]3CO)O[C@@H]2CO)[C@H](O)[C@@H](O)[C@@H]1O` (stereo partly drawn) [Cellopentaose] showed a Km of 132 ± 11 µM.
`OC[C@H]1O[C@@H](O[C@H]2[C@H](O)[C@@H](O)[C@H](O[C@H]3[C@H](O)[C@@H](O)[C@H](O[C@H]4[C@H](O)[C@@H](O)C(O)O[C@@H]4CO)O[C@@H]3CO)O[C@@H]2CO)[C@H](O)[C@@H](O)[C@@H]1O` (stereo partly drawn) [Cellotetraose] showed a Km of 160 ± 12 µM.
`OC[C@H]1O[C@@H](O[C@H]2[C@H](O)[C@@H](O)[C@H](O[C@H]3[C@H](O)[C@@H](O)C(O)O[C@@H]3CO)O[C@@H]2CO)[C@H](O)[C@@H](O)[C@@H]1O` (stereo partly drawn) [Cellotriose] was tested, and the Km was 163 ± 16 µM.
